Where “and” joins values, the source holds several entries; their conditions need not be identical. Equal entries are not always repeated.
Key:
iSketSnFR constructs = assay: Activation of the iSketSnFR constructs by a permanently charged analog; format: biochemical
Description: (§1) Biosensors selected for further study were purified with the His6 sequence included in the bacterial expression vector (Shivange et al., [2019]). Proteins were purified by immobilization in phosphate-buffered saline (PBS), pH 7.4, and elution in an imidazole gradient (10–200 mM). Proteins were concentrated by centrifugation through a 30 kDa cut off column, and by dialysis against PBS. The dialyzed protein was quantified using a nanodrop spectrofluorometer, and 50 or (preferably) 100 nM was used in dose-response studies to characterize responses to various ligands. Dose-response relations for ligands were conducted with the plate reader. The pH-dependent dose-response studies with purified iSketSnFR constructs were performed using 3× PBS buffers.
The permanently charged nicotine analog, N’-methylnicotinium, previously provided additional insights for the iNicSnFR family (Shivange et al., [2019]).

iSketSnFR2 (AK8) = assay: Dose-response of purified iSketSnFR2 (AK8) biosensor fluorescence; format: biochemical
Description: (§2) A Tecan Spark M10 96-well fluorescence plate reader (equipped with appropriate filters) was used to measure resting and S-ketamine-induced fluorescence (F0 and ΔF, respectively). Bacterial lysates were tested with excitation at 485 nm and emission at 535 nm. Promising clones were amplified and sequenced.
as §1
(§3) We introduce a convenient metric to summarize progress in evolving increasingly sensitive fluorescent biosensors for drugs. The metric, the S-slope, is especially appropriate for low drug concentrations because it corresponds to the relationship between [drug] and ΔF at the beginning of the dose-response relation. We define the S-slope for use with intensity-based drug biosensors:
(§4) S−slope = Δ(F/F0)/(Δ[drug]).
(§5) We state the S-slope in units of μM^−1.
(§6) This article uses the S-slope for measurements on S-ketamine biosensors in bacterial lysates, with purified proteins, and expressed in cells. […] In this case, we calculated (as in Figure 2A below),

iSketSnFR2_ER = assay: Time-resolved fluorescence in Neuro2a cells transfected with iSketSnFR2_ER; format: cell-based
Description: (§7) We constructed two variants of the iSKetSnFR1 and iSketSnFR2 biosensors for expression in mammalian cells. The plasma membrane (_PM) and endoplasmic reticulum (_ER) variants were constructed by a circular polymerase extension cloning procedure. For iSketSnFR1_PM and iSKetSnFR2_PM, we cloned the bacterial constructs into pCMV(MinDis), a variant of pDisplay (Invitrogen, Carlsbad, CA, USA) lacking the hemagglutinin tag (Marvin et al., [2013]). We modified the previous transmembrane domain (Shivange et al., [2019]) as follows. […]
(§8) We find that signals with the iSKetSnFR constructs have brightness similar to those of the previous iNicSnFR cpGFP-based biosensors for nicotine (Shivange et al., [2019]), but the dynamic range is somewhat lower for the iKetSnFRs. […] Fluorescence measurements at λex = 470 nm have been described (Shivange et al., [2019]). […] PM-directed constructs were measured with a region of interest (ROI) that included only the cell periphery.
(§9) Solutions were delivered from elevated reservoirs by gravity flow, through solenoid valves (Automate Scientific, Berkeley, CA, USA), then through tubing fed into a manifold, at a rate of 1–2 ml/min. […] As usual in fluorescence imaging experiments, we excluded data from the brightest cells, because these may have fluorescent impurities or aggregates that produce a rapidly bleaching baseline. […]

AK1 = assay: S-ketamine dose-response of biosensor construct AK1; format: biochemical; conditions: at 1 μM S-ketamine; Gly residue at position 357
Description: Starting with the iNicSnFR biosensor constructs (Shivange et al., [2019]), we constructed and measured ~3,000 mutants, in iterative rounds of site-saturated mutagenesis (SSM). We utilized the Quikchange mutagenesis protocol (Agilent), including a mixture of three primers, creating 22 unique codons encoding the 20 canonical amino acids (Kille et al., [2013]). The 22-codon procedure yields an estimated >96% residue coverage for a collection of 96 randomly chosen clones.
as §2, with “sequenced. […]” for “sequenced.”
Biosensors selected for further study were purified with the His6 sequence included in the bacterial expression vector (Shivange et al., [2019]). […] The dialyzed protein was quantified using a nanodrop spectrofluorometer, and 50 or (preferably) 100 nM was used in dose-response studies to characterize responses to various ligands. Dose-response relations for ligands were conducted with the plate reader. […]
as §6

iSketSnFR1_PM = assay: Time-resolved fluorescence in iPSC-derived dopaminergic neurons transfected with iSketSnFR1_PM; format: cell-based, human; conditions: Figure 6C, dopaminergic neurons differentiated from iPSCs, average of five cells
Description: as §7, with “follows. We replaced the terminal KKPR of the PDGF receptor (a putative ER retention motif) with KYLQKRRERRRQ (a p14 Golgi export motif) and ENANSFCYENEVAL (a putative Kir2.X ER export motif).” for “follows.”
(§10) Fujifilm CDI^2 (formerly named Cellular Dynamics International, Madison WI, USA), furnished iCell DopaNeurons. […] The supplier has measured that 89% of the cells are positive for tyrosine hydroxylase by fluorescence-activated cell sorting. […]
as §8, with “periphery. […]” for “periphery.”

[1] = tested on: endoplasmic reticulum (ER); assay: Subcellular pharmacokinetics: S-ketamine in the endoplasmic reticulum measured with ER- and PM-targeted biosensors; format: cell-based; conditions: Neuro2a cells and human dopaminergic neurons differentiated from iPSCs
Description: as §7, §8, §9

iSketSnFR1_ER = assay: Time-resolved fluorescence in iPSC-derived dopaminergic neurons transfected with iSketSnFR1_ER; format: cell-based, human; conditions: Figure 6C, dopaminergic neurons differentiated from iPSCs, average of five cells
Description: as §7, with “follows. We replaced the terminal KKPR of the PDGF receptor (a putative ER retention motif) with KYLQKRRERRRQ (a p14 Golgi export motif) and ENANSFCYENEVAL (a putative Kir2.X ER export motif).” for “follows.”
as §10
as §8, with “periphery. […]” for “periphery.”

[2] = after which rapid antidepressant effects occur; ref Lester et al., 2012; Janssen Research and Development, 2019; cited from earlier work
iSketSnFR2_PM = assay: Time-resolved fluorescence in Neuro2a cells transfected with iSketSnFR2_PM; format: cell-based
Description: as §7, §8, §9

iSketSnFR1 (AK2) = assay: Dose-response of purified iSketSnFR1 (AK2) biosensor fluorescence; format: biochemical
Description: as §2, §1, §3, §4, §5, §6

[3] = tested on: iNicSnFR1, iNicSnFR2, and iNicSnFR3a, as well as 12 other biosensors in the series; assay: Fluorescence test against iNicSnFR biosensors; format: biochemical; conditions: at concentrations <100 μM
Description: as §2, with “sequenced. The most sensitive construct in each round of SSM was used as a template for the next round of SSM.” for “sequenced.”
We tested S-ketamine and R-ketamine (Figure 1) against iNicSnFR1, iNicSnFR2, and iNicSnFR3a, as well as against 12 other biosensors in the series that led to the iNicSnFRs (Shivange et al., [2019]).

[4] = tested on: iSketSnFR1_PM or iSketSnFR1_ER; assay: Time-resolved fluorescence in Neuro2a cells transfected with iSketSnFR1 constructs; format: cell-based; conditions: 20 s pulses (Figure 4), read-out: half-maximal concentration of S-ketamine
Description: as §7, §8, §9

[5] = Figure 5C, sub-μM S-ketamine, linear fit, average of 10 cells
[6] = [S-ketamine] <1 μM, mean ± SD, 25 total cells from two independent transfections
[7] = Figure 2B2, purified protein, pH 7.0, 3× PBS, Hill fit
[8] = Figure 2B1, purified protein, pH 7.0, 3× PBS, Hill fit

C[N+](C)(C)[C@]1(c2ccccc2Cl)CCCCC1=O [N,N-dimethyl-S-ketamine]
activation of the iSketSnFR constructs (iSketSnFR constructs): did not produce robust activation

CN[C@@]1(c2ccccc2Cl)CCCCC1=O [R-ketamine]
concentrations giving detectable responses (iSketSnFR2 (AK8)): > 100 µM | S-slope lower than that of S-ketamine (iSketSnFR2 (AK8); at iSketSnFR2): at least 100 fold

CN[C@]1(c2ccccc2Cl)CCCCC1=O [S-ketamine]
S-slope (iSketSnFR2_ER; [5]): 0.26 µM⁻¹ | S-slope (iSketSnFR2_ER; [6]): 0.29 ± 0.04 µM⁻¹ | ΔF/F0 (AK1): ~ 0.12 | S-slope (iSketSnFR1_PM): 0.099 µM⁻¹ and 0.1 µM⁻¹ | S-Ketamine Dose-Response S-slope (iSketSnFR2 (AK8); Figure 2A, purified protein): 1.87 µM⁻¹ and 1.9 µM⁻¹ | EC50 (iSketSnFR2 (AK8); [7]): 1.16 ± 0.6 µM | ΔFmax/F0 (iSketSnFR2 (AK8); [7]): 3.0 ± 0.3 | S-slope (iSketSnFR2 (AK8); Figure 7A, in solution, λEx = 400 nm, pH 7): -0.23 µM⁻¹ | S-slope = delta(F/F0)/(delta[S-ketamine]) (iSketSnFR2 (AK8); in solution (abstract)): 1.9 µM⁻¹ | [S-slope] (magnitude) (iSketSnFR2 (AK8); λex = 400 nm, purified protein, pH range 6 to 8.5 (Supplementary Figure S2)): ≤ 0.3 | time for entry into the ER after appearing in the external solution [1]: within a few seconds | time to leave the ER after removal from the extracellular solution [1]: within a few seconds | S-slope (iSketSnFR1_ER): 0.111 µM⁻¹ | peak blood plasma concentrations [2]: 0.2 to 1 µM | S-slope (iSketSnFR2_PM; [5]): 0.49 µM⁻¹ | S-slope (iSketSnFR2_PM; [6]): 0.42 ± 0.14 µM⁻¹ | S-Ketamine Dose-Response S-slope (iSketSnFR1 (AK2); Figure 2A, purified protein): 0.32 µM⁻¹ | EC50 (iSketSnFR1 (AK2); [8]): 10.7 ± 1.5 µM | ΔFmax/F0 (iSketSnFR1 (AK2); [8]): 3.4 ± 0.1 | expected response ΔF/F0 in vitro (iSketSnFR1 (AK2); to 1 μM S-ketamine, expected from S-slope): 0.32 | fluorescence increase activated by ligand [3]: no detectable fluorescence increase | EC50 [4]: ~10 µM

From paper PMC6874132, “Biosensors Show the Pharmacokinetics of S-Ketamine in the Endoplasmic Reticulum” (Frontiers in Cellular Neuroscience, 2019)
